Data on one compound can be found in US4813876A, “Method of treating living pulp tissue” (Dentsply Research & Development Corp., priority 1987, dated 1989).

The subject of the data set is L929 mouse fibroblast cells. Nature of the data set: Tissue culture MEM elution test (cytotoxicity). The format is cell-based. Particulars: 25 mg. As to the method:
One accepted method for determining the necessary biocompatibility of various compositions toward living tissue is an in vitro cell culture biocompatibility method wherein samples of the compositions to be tested are extracted in a bovine serum solution in a Minimum Essential Medium (MEM), whereafter the bovine serum solution and specified animal cells, such as human (WI-38), L929 mouse fibroblast cells or their equivalent, are incubated in a MEM for a predetermined period of time, and the incubated cells are visually observed and graded for cytotoxic manifestations. See, for example, R. E. Wilsnack, Quantitative Cell Culture Biocompatibility Testing of Medical Devices and Correlation To Animal Tests, Biomat, Med. Dev. Art. Org., 4(3& 4), 235-261 (1976). In connection with the present compositions, the in vitro cell culture method preferably is performed using L929 mouse fibroblast cells which have been cultured in a growth medium consisting of 5% bovine serum solution in MEM, wherein the bovine serum solution initially was used to extract a specified mass of cured or uncured material, as the case may be, and wherein the cells were incubated at 37°±2° C. for a specified period of time, e.g., 24, 48 or 72 hours. The degree of toxicity may be stated as a function of the percentage of the cells which have been lysed or fixed over the test period. […]

`[Ca+2].[OH-].[OH-]` [Calcium Hydroxide, calcium hydroxide]: where the note is “2 hours after extract placed on cells”, the “Cytotoxic manifestation (footnote ***)” value was “All cells dead after 2 hours”. Also, the “24 hr results (% Lysed or fixed)” value (Table I, curing time 0 s, 24 hr) was determined as 100%.
